Experimental data published in BindingDB's records for patent US10052306 (CADENT THERAPEUTICS, INC., 2018).

Molecular target: Glutamate receptor ionotropic, NMDA 2B (Homo sapiens, UniProt Q13224)
Experiment: FDSS Assay
Procedure: To each well of the plate, 10 μL test compound, control (MK801) or HHnoCa buffer was added to a final concentration of 10 μM with a final concentration of DMSO of 0.1%. Following 10 minutes pre-incubation in the dark, plates are loaded onto the Hamamatsu FDSS 6000. After collecting baseline fluorescence images, 3 μM glutamate, 3 glycine, and 1 mM Ca2+ in HHnoCa buffer is added to each well, and Ca2+ is recorded for 3 minutes. Data were processed by computing ratio of fluorescence at the end of data collection to baseline fluorescence to assess degree of Ca′ influx inhibition relative to that observed in MK801.

Glutamate receptor ionotropic, NMDA 2B, sequence (Q13224 whole entry): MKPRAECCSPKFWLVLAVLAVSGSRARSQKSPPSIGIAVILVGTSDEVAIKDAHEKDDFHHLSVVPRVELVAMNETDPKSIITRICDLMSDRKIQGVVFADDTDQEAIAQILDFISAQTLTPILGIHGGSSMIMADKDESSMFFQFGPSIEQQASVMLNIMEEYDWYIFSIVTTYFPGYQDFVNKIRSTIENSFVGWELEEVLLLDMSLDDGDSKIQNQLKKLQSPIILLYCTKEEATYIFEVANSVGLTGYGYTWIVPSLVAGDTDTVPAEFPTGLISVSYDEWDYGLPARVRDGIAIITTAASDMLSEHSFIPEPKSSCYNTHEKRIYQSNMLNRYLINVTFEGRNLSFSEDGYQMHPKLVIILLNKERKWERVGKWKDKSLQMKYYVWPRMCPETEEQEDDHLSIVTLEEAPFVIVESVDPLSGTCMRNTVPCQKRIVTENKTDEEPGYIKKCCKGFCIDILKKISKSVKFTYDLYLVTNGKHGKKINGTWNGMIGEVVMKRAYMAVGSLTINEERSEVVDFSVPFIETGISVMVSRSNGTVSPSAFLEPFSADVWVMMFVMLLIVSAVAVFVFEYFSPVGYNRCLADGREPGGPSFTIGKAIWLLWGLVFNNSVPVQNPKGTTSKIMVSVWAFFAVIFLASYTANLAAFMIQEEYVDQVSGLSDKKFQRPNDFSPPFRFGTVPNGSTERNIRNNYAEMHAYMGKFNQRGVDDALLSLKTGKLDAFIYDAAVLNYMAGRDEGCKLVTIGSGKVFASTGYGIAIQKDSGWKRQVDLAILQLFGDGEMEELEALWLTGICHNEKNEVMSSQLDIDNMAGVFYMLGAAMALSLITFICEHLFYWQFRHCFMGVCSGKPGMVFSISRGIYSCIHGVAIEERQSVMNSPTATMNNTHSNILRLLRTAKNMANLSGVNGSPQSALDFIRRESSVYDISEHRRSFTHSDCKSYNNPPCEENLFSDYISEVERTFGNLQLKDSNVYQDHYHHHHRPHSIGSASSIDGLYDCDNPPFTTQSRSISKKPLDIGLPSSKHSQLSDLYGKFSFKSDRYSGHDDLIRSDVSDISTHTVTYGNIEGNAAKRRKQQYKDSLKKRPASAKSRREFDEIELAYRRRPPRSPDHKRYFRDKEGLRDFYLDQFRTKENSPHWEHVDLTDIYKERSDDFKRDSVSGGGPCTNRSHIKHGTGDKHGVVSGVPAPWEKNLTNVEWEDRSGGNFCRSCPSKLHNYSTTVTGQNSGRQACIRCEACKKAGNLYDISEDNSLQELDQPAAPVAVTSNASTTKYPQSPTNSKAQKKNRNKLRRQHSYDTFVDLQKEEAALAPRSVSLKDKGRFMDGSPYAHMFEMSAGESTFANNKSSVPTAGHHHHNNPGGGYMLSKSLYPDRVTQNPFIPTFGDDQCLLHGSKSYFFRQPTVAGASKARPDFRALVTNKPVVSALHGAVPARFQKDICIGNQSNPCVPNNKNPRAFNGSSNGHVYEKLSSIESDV

IC50: 10 µM
SMILES: O=C(CN1C[C@@H]2C[C@@](O)(c3ccccc3)C[C@@H]2C1)c1ccc(O)cc1 [US10052306, 65]
